# According to US20120283293A1, “Methods of neuroprotection involving Prostaglandin E2 EP4 (PGE2 EP4) receptor activation” (The Board of Trustees of the Leland Stanford Junior …, priority 2011, published 2012):
# What was measured:
# primary microglia = experiment: qPCR of inflammatory gene expression in LPS-stimulated primary microglia; type: cell-based, rat; conditions: LPS treated primary microglia, AE1-329 100 nM, 3 h
# Procedure: Murine microglial-like BV-2 cells were grown in DMEM medium supplemented with 10% heat-inactivated fetal bovine serum (HyClone, Logan, Utah) and 100 units/ml each of penicillin and streptomycin and were maintained at 37° C. in a humidified atmosphere containing 5% CO2. For primary microglial cultures, cerebral cortices were isolated from postnatal day 2 Sprague-Dawley rat pups obtained from Charles River Laboratories International, Inc. (Davis, Calif.). Tissues were minced and incubated in 0.25% trypsin-EDTA, mechanically triturated in DMEM/F-12 with 10% FBS, and plated on poly-L-lysine-coated […]. Cultures were maintained for 14 days with media changes every 4 days. […]
# (§1) qPCR was carried out as previously described (Liang et al., 2008). […] The mRNA level for each target gene was quantified by SYBR Green-based qPCR using the QuantiTect SYBR Green PCR kit (Qiagen). […] Quantification was performed using the standard curve method. […]
# Inflammatory stimuli such as LPS can activate microglia through the CD14/TLR4 receptor complex and induce the expression of pro-inflammatory enzymes and cytokines (Fassbender et al., 2004; Walter et al., 2007). […] BV-2 cells were treated with LPS (10 ng/ml) in the presence or absence of the selective EP4 agonist AE1-329 (1 μM) for 6 h, and pro-inflammatory gene expression was measured using qPCR (see FIG. 2). […]
# [1] = system: hippocampus of LPS-treated mice; experiment: LPS-induced hippocampal pro-inflammatory gene response in mice (qPCR, microglial morphology); type: in vivo, mouse
# Procedure: The murine in vivo studies were conducted in accordance with the National Institutes of Health guidelines for the use of experimental animals and protocols were approved by the Institutional Animal Care and Use Committee. C57B6 EP4 floxed mice (Schneider et al., 2004) were kindly provided by Drs. Richard and Matthew Breyer (Vanderbilt University School of Medicine, Nashville, Tenn.), and C57B6 Cd11bCre mice (Boillee et al., 2006) were kindly provided by Dr. G. Kollias (Alexander Fleming Biomedical Sciences Research Center, Vari, Greece) and Dr. Donald Cleveland (UCSD, San Diego, Calif.). All mice were housed in an environment controlled for lighting (12 hour light/dark cycle), temperature, and humidity, with food and water available ad libitum. Cd11bCre:EP4f/f and Cd11bCre:EP4+/+ mice were generated by serial crosses of C57B6 Cd11bCre and EP4f/f and EP4+/+ lines. Male Cd11bCre: EP4f/f and Cd11bCre: EP4+/+ mice were treated with either saline or LPS (5 mg/kg intraperitoneally: n=5-8 per group, 13 months of age). 24 hours after injection, mice were euthanized and brain tissue was harvested and frozen at −80° C. For pharmacological experiments, C57B6 male mice (Jackson Laboratories, Bar Harbor, Me.; n=7 or 8 per group) received an injection of saline or LPS (5 mg/kg, i.p.+/−vehicle or AE1-329 ([…]) (Qin et al., 2007; Nagamatsu et al., 2006). Mice were euthanized 6 hours later, and brain tissue was harvested and frozen at −80° C. For collection of plasma, C57B6 male mice (n=5 per group) received an injection of saline or LPS (5 mg/kg, i.p.)+/−AE1-329 ([…] s.c.) or vehicle. Mice were deeply anesthetized with isoflurane at 3 h and blood was collected in a 1-ml syringe pre-coated with EDTA (250 mM) and placed in EDTA coated tubes. […]
# as §1
# [2] = mice, LPS 5 mg/kg i.p., AE1-329 300 μg/kg s.c., 6 hours
structure (smiles),measurement,setting,value
COCc1ccccc1CC[C@H](O)/C=C/[C@H]1[C@H](O)CC(=O)[C@@H]1SCCCSCC(=O)O [AE1-329],IL-10 expression,primary microglia,upregulation of the anti-inflammatory IL-10
same,"pro-inflammatory gene expression (iNOS, COX-2, TNF-α, gp91phox)",primary microglia,downregulation of pro-inflammatory gene expression
same,"LPS-induced COX-2, iNOS, TNF-α, IL-6 and IL-1β mRNA levels in hippocampus",[1]; [2],significantly attenuated
same,"hippocampal expression of NADPH oxidase subunits gp91phox, p67phox and p47phox",[1]; [2],trend toward decreased expression
same,microglial morphological changes in response to LPS (Iba1 staining),"[1]; mouse hippocampal CA1, 6 hours after LPS + AE1-329",modestly decreased
